biological target: T1, LRRK2 wild type (recombinant human, catalytic domain amino acids 970-2527, GST-tagged) (Homo sapiens, UniProt Q5S007); assay: LRRK2 wild type protein kinase assay ([γ-33P] ATP, peptide substrate […]), IC50; type: biochemical; conditions: LRRK2 (variant not given); read-out: Potency score, LRRK2 IC50
T1 construct: The wild type used was recombinant human, catalytic domain (amino acids 970-2527) GST-tagged, expressed in insect cells; GST; purchased Invitrogen Corporation PV4873; host or cells: insect cells
Text: All LRRK2 protein kinases were of human origin and were sourced from Invitrogen Corporation (Carlsbad, Calif. 92008 USA) unless otherwise indicated. The active mutant used was recombinant human, catalytic domain (amino acids 970-2527) containing a G2019S mutation, GST-tagged, expressed in insect cells (Invitrogen Cat#PV4881). The wild type used was recombinant human, catalytic domain (amino acids 970-2527) GST-tagged, expressed in insect cells (Invitrogen Cat#PV4873). The kinase dead mutant used was recombinant human, catalytic domain (amino acids 970-2527) containing a D1994A mutation, GST-tagged, expressed in insect cells (Invitrogen Cat#PM4041AE). No special measures were taken to activate any of the kinases.
All assays were carried out at room temperature (˜21° C.) and were linear with respect to time and enzyme concentration under the conditions used. Assays were performed for 180 min in a 96 well format. LRRK2 was present at a concentration of approximately 5 nM. The enzyme was diluted and assayed in 50 mM Tris-HCl pH7.5, 0.1 mM EGTA, 1 mM DTT and 10 mM MgCl2. The concentration of magnesium chloride in the assay was 10 mM. The [γ-33P] […] The peptide substrate in the assay was […] at 100 μM.
The assays were initiated with Mg/ATP and stopped by the addition of 25 μl/well 50% orthophosphoric acid. Reactions were harvested onto Whatman P81 Unifilter Plates (Fisher Scientific. Loughborough, LE115RG, UK. Cat# FDU-105-020U) using a Tomtec harvester. (Tomtec Hamden, Conn. 06514. USA) Plates were counted using a Perkin Elmer Top Count NX7. (Perkin Elmer, Shelton Conn. 06484-4794 USA)
IC50 values of inhibitors were determined after carrying out assays at 10 different concentrations of each compound in duplicate.

T1 sequence (Q5S007 970-2527): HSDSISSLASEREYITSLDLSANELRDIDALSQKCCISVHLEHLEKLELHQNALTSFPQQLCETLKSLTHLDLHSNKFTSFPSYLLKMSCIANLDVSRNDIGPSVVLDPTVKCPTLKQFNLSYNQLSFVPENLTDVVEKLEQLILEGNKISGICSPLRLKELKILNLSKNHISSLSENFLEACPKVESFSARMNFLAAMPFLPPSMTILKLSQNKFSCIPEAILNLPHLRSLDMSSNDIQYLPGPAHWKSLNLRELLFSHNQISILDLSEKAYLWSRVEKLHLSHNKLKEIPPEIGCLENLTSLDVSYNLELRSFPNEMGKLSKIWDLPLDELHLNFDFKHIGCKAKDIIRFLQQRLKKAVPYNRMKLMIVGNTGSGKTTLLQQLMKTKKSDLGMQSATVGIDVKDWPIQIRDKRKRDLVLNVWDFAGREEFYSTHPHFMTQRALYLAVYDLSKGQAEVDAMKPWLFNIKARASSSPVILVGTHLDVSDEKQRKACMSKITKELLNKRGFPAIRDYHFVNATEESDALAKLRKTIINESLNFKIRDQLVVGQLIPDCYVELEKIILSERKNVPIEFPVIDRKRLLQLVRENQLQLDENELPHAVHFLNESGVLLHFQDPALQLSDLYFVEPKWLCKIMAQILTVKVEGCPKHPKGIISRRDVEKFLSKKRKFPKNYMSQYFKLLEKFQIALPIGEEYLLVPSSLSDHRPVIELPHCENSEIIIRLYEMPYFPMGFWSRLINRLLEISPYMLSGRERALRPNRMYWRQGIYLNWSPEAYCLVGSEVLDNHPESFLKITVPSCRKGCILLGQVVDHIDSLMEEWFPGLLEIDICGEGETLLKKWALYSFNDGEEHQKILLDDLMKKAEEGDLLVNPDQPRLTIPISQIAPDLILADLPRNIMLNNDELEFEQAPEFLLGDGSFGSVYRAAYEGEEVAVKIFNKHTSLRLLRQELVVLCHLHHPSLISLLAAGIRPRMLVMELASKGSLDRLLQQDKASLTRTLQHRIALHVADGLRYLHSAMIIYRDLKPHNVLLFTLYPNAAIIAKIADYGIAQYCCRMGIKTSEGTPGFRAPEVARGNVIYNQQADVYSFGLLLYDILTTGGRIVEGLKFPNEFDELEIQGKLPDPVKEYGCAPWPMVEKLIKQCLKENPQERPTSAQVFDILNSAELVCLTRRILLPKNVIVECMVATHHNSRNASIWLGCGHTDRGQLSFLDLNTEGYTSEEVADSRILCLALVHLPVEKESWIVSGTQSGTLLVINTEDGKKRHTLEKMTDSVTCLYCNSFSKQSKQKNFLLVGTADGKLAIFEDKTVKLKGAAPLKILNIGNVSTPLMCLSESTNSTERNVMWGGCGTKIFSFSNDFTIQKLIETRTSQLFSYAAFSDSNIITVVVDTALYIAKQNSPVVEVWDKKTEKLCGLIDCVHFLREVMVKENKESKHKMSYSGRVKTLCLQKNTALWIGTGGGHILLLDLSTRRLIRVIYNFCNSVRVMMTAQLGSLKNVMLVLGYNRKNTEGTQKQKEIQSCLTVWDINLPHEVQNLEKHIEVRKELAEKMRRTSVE

Compound	IC50
O=C(CCc1n[nH]c2ccnc(NC3CCCCC3)c12)N1CCCC(F)(F)C1 [Example 191, 3-(4-Cyclohexylamino-1H-pyrazolo[4,3-c]pyridin-3-yl)-1-(3,3-difluoro-piperidin-1-yl)-propan-1-one]	< 0.1 µM
CC(=O)Nc1ccc(Nc2nccc3[nH]nc(C)c23)cc1 [Example 79, N-[4-(3-Methyl-1H-pyrazolo[4,3-c]pyridin-4-ylamino)-phenyl]-acetamide]	0.1 to 1 µM
Fc1cc(-c2n[nH]c3ccnc(NC4CCCCC4)c23)cc(F)c1F [Example 163, Cyclohexyl-[3-(3,4,5-trifluoro-phenyl)-1H-pyrazolo[4,3-c]pyridin-4-yl]-amine]	1 to 10 µM
CN1CCN(C(=O)CCc2n[nH]c3ccnc(NC4CCCCC4)c23)CC1c1ccccc1 (stereo not shown) [Example 245, 3-(4-Cyclohexylamino-1H-pyrazolo[4,3-c]pyridin-3-yl)-1-(4-methyl-3-phenyl-piperazin-1-yl)-propan-1-one]	0.1 to 1 µM
O=C(CCc1n[nH]c2ccnc(NC3CCCCC3)c12)N1CCCC1 [Example 173, 3-(4-Cyclohexylamino-1H-pyrazolo[4,3-c]pyridin-3-yl)-1-pyrrolidin-1-yl-propan-1-one]	0.1 to 1 µM
O=C(CCc1n[nH]c2ccnc(NC3CCCCC3)c12)N1CCCC(Oc2ccccc2)C1 (stereo not shown) [Example 238, 3-(4-Cyclohexylamino-1H-pyrazolo[4,3-c]pyridin-3-yl)-1-(3-phenoxy-piperidin-1-yl)-propan-1-one]	0.1 to 1 µM
CC1CCN(C(=O)c2ccc(CCc3n[nH]c4ccnc(NC5CCCCC5)c34)cc2)CC1 [Example 229, {4-[2-(4-Cyclohexylamino-1H-pyrazolo[4,3-c]pyridin-3-yl)-ethyl]-phenyl}-(4-methyl-piperidin-1-yl)-methanone]	< 0.1 µM
CC(C)CN(C)C(=O)c1ccc(CCc2n[nH]c3ccnc(NC4CCCCC4)c23)cc1 [Example 249, 4-[2-(4-Cyclohexylamino-1H-pyrazolo[4,3-c]pyridin-3-yl)-ethyl]-N-isobutyl-N-methyl-benzamide]	< 0.1 µM
Cc1n[nH]c2ccnc(-c3nccs3)c12 [Example 130, 3-Methyl-4-thiazol-2-yl-1H-pyrazolo[4,3-c]pyridine]	0.1 to 1 µM
Cc1n[nH]c2ccnc(NCc3ccccn3)c12 [Example 312, (3-Methyl-1H-pyrazolo[4,3-c]pyridin-4-yl)-pyridin-2-ylmethyl-amine]	1 to 10 µM
Cc1nc2cc(Nc3nccc4[nH]nc(C)c34)ccc2s1 [Example 328, (2-Methyl-benzothiazol-5-yl)-(3-methyl-1H-pyrazolo[4,3-c]pyridin-4-yl)-amine]	1 to 10 µM
O=C(CCc1n[nH]c2ccnc(NC3CCCCC3)c12)N1CCCCC1c1cccnc1 (stereo not shown) [Example 208, 3-(4-Cyclohexylamino-1H-pyrazolo[4,3-c]pyridin-3-yl)-1-(3,4,5,6-tetrahydro-2H-[2,3′]bipyridinyl-1-yl)-propan-1-one]	< 0.1 µM
O=C(CCc1n[nH]c2ccnc(NC3CCCCC3)c12)N1CCCCC1c1ccccc1 (stereo not shown) [Example 201, 3-(4-Cyclohexylamino-1H-pyrazolo[4,3-c]pyridin-3-yl)-1-(2-phenyl-piperidin-1-yl)-propan-1-one]	0.1 to 1 µM
Cc1n[nH]c2ccnc(C3CCCC3)c12 [Example 127, 4-Cyclopentyl-3-methyl-1H-pyrazolo[4,3-c]pyridine]	0.1 to 1 µM
CC1CN(C(=O)c2ccc(CCc3n[nH]c4ccnc(NC5CCCCC5)c34)cc2)C1 [Example 251, {4-[2-(4-Cyclohexylamino-1H-pyrazolo[4,3-c]pyridin-3-yl)-ethyl]-phenyl}-(3-methyl-azetidin-1-yl)-methanone]	< 0.1 µM
CCOc1cccc(Nc2nccc3[nH]nc(C)c23)c1 [Example 71, (3-Ethoxy-phenyl)-(3-methyl-1H-pyrazolo[4,3-c]pyridin-4-yl)-amine]	1 to 10 µM
Cc1n[nH]c2ccnc(N[C@H]3CC[C@H](C)CC3)c12 [Example 34, Trans-(4-Methyl-cyclohexyl)-(3-methyl-1H-pyrazolo[4,3-c]pyridin-4-yl)-amine]	0.1 to 1 µM
CN(C)C(=O)c1ccc(-c2n[nH]c3ccnc(NC4CCCCC4)c23)cc1 [Example 165, 4-(4-Cyclohexylamino-1H-pyrazolo[4,3-c]pyridin-3-yl)-N,N-dimethyl-benzamide]	1 to 10 µM
CCN(CC)CC1CCCN(C(=O)CCc2n[nH]c3ccnc(NC4CCCCC4)c23)C1 (stereo not shown) [Example 240, 3-(4-Cyclohexyl-amino-1H-pyrazolo[4,3-c]pyridin-3-yl)-1-(3-diethylaminomethyl-piperidin-1-yl)-propan-1-one]	0.1 to 1 µM
Cc1n[nH]c2ccnc(NC3CCCCCC3)c12 [Example 33, Cycloheptyl-(3-methyl-1H-pyrazolo[4,3-c]pyridin-4-yl)-amine]	0.1 to 1 µM

Compound	IC50
c1cc2[nH]nc(-c3ccoc3)c2c(OC2CCCCC2)n1 [Example 236, 4-Cyclohexyloxy-3-furan-3-yl-1H-pyrazolo[4,3-c]pyridine]	< 0.1 µM
Cc1n[nH]c2ccnc(N(C)CC(C)C)c12 [Example 91, Isobutyl-methyl-(3-methyl-1H-pyrazolo[4,3-cc]pyridin-4-yl)-amine]	1 to 10 µM
Cc1n[nH]c2ccnc(O[C@H]3C[C@@H]4CC[C@H]3C4)c12 (racemic) [Example 291]	0.1 to 1 µM
Cc1n[nH]c2ccnc(NCC3CC3)c12 [Example 18, Cyclopropylmethyl-(3-methyl-1H-pyrazolo[4,3-c]pyridin-4-yl)-amine]	1 to 10 µM
CN(CCc1ccccc1)C(=O)CCc1n[nH]c2ccnc(NC3CCCCC3)c12 [Example 189, 3-(4-Cyclohexylamino-1H-pyrazolo[4,3-c]pyridin-3-yl)-N-methyl-N-phenethyl-propionamide]	1 to 10 µM
Cc1n[nH]c2ccnc(Nc3cccc(-c4nnco4)c3)c12 [Example 353]	1 to 10 µM
Cc1n[nH]c2ccnc(N[C@H](C)C(C)C)c12 [Example 39, ((R)-1,2-Dimethyl-propyl)-(3-methyl-1H-pyrazolo[4,3-c]pyridin-4-yl)-amine]	0.1 to 1 µM
Cc1n[nH]c2ccnc(Nc3ccc(C(N)=O)cc3)c12 [Example 83, 4-(3-Methyl-1H-pyrazolo[4,3-c]pyridin-4-ylamino)-benzamide]	0.1 to 1 µM
CCN(CC)CCNc1nccc2[nH]nc(C)c12 [Example 14, N,N-diethyl-N′-(3-methyl-1H-pyrazolo[4,3-c]pyridin-4-yl)-ethane-1,2-diamine]	1 to 10 µM
Cc1n[nH]c2ccnc(OCC(F)(F)F)c12 [Example 279, 3-Methyl-4-(2,2,2-trifluoro-ethoxy)-1H-pyrazolo [4,3-c]pyridine]	0.1 to 1 µM
Cc1n[nH]c2ccnc(C(=O)NC3CCCCC3)c12 [Example 100, 3-Methyl-1H-pyrazolo[4,3-c]pyridine-4-carboxylic acid cyclohexylamide]	1 to 10 µM
Cc1n[nH]c2ccnc(NCC(C)(C)C)c12 [Example 32, (2,2-Dimethyl-propyl)-(3-methyl-1H-pyrazolo[4,3-c]pyridin-4-yl)-amine]	1 to 10 µM
O=C(CCc1n[nH]c2ccnc(NC3CCCCC3)c12)N1CCC(C(F)(F)F)CC1 [Example 203, 3-(4-Cyclohexylamino-1H-pyrazolo[4,3-c]pyridin-3-yl)-1-(4-trifluoromethyl-piperidin-1-yl)-propan-1-one]	0.1 to 1 µM
Cc1n[nH]c2ccnc(NCC3CCCO3)c12 (stereo not shown) [Example 304, (3-Methyl-1H-pyrazolo[4,3-c]pyridin-4-yl)-(tetrahydro-furan-2-ylmethyl)-amine]	1 to 10 µM
c1cc(-c2n[nH]c3ccnc(NC4CCCCC4)c23)cc(-n2cccn2)c1 [Example 155]	0.1 to 1 µM
Cc1n[nH]c2ccnc(Nc3ccc4cn(C)nc4c3)c12 [Example 64, (2-Methyl-2H-indazol-6-yl)-(3-methyl-1H-pyrazolo[4,3-c]pyridin-4-yl)-amine]	1 to 10 µM
Cc1n[nH]c2ccnc(OCc3ccccc3)c12 [Example 290, 4-Benzyloxy-3-methyl-1H-pyrazolo[4,3-c]pyridine]	0.1 to 1 µM
Cc1n[nH]c2ccnc(Nc3ccc(C(=O)N(C)c4ccccc4)cc3)c12 [Example 109, N-Methyl-4-(3-methyl-1H-pyrazolo[4,3-c]pyridin-4-ylamino)-N-phenyl-benzamide]	1 to 10 µM
Cc1n[nH]c2ccnc(Nc3ccc4cnn(C)c4c3)c12 [Example 90, (1-Methyl-1H-indazol-6-yl)-(3-methyl-1H-pyrazolo[4,3-c]pyridin-4-yl)-amine]	0.1 to 1 µM
COCC(=O)Nc1ccc(CCc2n[nH]c3ccnc(NC4CCCCC4)c23)cc1 [Example 272, N-{4-[2-(4-Cyclohexylamino-1H-pyrazolo[4,3-c]pyridin-3-yl)-ethyl]-phenyl}-2-methoxy-acetamide]	< 0.1 µM

Reference: US20170320870A1 (Medical Research Council Technology, priority 2009, published 2017)
